This passage reports Ki and IC50 results from ChEMBL document CHEMBL1133898 (Bioorg Med Chem Lett, 2001).

Structures are written as SMILES. Some results are limits rather than exact numbers.

The term Ki denotes the equilibrium dissociation constant of an inhibitor or competing ligand from its target. Read a high Ki as lower affinity. As usually defined, the IC50 is the concentration needed to halve the response being measured.

The target in test [1] is T1, Sodium-dependent dopamine transporter (Rattus norvegicus, UniProt P23977). Kind of test: Inhibition of high affinity uptake of [3H]DA using rat nerve endings obtained from brain regions enriched in DAT.
T1 sequence (P23977 whole entry): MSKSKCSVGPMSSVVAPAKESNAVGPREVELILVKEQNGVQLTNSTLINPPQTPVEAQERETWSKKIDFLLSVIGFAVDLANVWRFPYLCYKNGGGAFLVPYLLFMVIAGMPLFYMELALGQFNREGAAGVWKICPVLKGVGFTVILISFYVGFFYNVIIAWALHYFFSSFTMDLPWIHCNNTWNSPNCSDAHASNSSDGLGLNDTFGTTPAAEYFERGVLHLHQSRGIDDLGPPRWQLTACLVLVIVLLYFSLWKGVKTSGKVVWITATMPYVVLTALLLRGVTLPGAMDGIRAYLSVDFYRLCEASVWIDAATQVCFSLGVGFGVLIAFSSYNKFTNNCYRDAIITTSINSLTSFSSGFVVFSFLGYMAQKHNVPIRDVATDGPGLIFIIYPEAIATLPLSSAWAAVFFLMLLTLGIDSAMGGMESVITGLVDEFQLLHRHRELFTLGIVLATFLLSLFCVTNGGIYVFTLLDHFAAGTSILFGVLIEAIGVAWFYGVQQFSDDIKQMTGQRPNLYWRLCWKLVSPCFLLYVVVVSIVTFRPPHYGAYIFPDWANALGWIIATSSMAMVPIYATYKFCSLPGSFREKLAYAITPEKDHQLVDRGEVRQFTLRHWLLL
Test [2] has as its target T1, Sodium-dependent dopamine transporter. Kind of test: Displacement of [3H][…] from dopamine transporter (DAT) of rat striatal membrane. Background: In a radioligand displacement assay an active substance lowers the binding of a labelled ligand.
Test [3] concerns the target T2, Norepinephrine transporter (Rattus norvegicus, UniProt Q9WTR4). As to the kind of experiment: Displacement of [3H]NE from Norepinephrine transporter of rat brain.
For test [4], the target named is T3, Sodium-dependent serotonin transporter (Rattus norvegicus, UniProt P31652). Kind of test: Displacement of [3H]5-HT from serotonin transporter of rat brain.
T3 sequence (P31652 whole entry): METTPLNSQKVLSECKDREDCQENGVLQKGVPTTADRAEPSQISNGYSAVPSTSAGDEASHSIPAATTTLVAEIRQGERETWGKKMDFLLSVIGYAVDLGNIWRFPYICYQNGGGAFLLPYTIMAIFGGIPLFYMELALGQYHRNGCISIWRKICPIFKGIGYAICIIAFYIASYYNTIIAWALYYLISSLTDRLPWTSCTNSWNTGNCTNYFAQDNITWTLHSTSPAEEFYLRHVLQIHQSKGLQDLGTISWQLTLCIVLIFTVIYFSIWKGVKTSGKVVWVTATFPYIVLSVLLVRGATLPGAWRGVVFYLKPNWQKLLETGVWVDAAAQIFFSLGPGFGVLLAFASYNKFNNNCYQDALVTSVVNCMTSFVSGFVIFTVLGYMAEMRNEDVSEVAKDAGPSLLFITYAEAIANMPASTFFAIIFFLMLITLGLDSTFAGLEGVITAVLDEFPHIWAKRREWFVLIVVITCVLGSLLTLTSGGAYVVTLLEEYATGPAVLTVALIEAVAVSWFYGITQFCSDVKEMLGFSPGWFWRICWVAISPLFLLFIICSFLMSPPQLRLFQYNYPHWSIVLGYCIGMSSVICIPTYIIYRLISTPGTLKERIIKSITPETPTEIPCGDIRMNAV
For test [5], the target named is T2, Norepinephrine transporter. Kind of test: Evaluated for its ability to inhibit high affinity uptake of [3H]NE using rat nerve endings obtained from brain regions enriched in norepinephrine transporter (NET). The test is classed as functional.
Test [6] concerns the target T3, Sodium-dependent serotonin transporter. Kind of test: Evaluated for its ability to inhibit high affinity uptake of [3H]-5-HT using rat nerve endings obtained from brain regions enriched in serotonin transporter (5HTT). The test is classed as functional.
Test [7] addresses T2, Norepinephrine transporter. As to the kind of experiment: Evaluated for ability to inhibit high affinity uptake of [3H]-NE using rat nerve endings obtained from brain regions enriched in Norepinephrine transporter. The test is classed as functional.
The target in test [8] is T3, Sodium-dependent serotonin transporter. As to the kind of experiment: Evaluated for ability to inhibit high affinity uptake of [3H]5-HT using rat nerve endings obtained from brain regions enriched in serotonin transporter (5HTT). The test is classed as functional.
For test [9], the target named is T1, Sodium-dependent dopamine transporter. Kind of test: Inhibitory concentration binding to dopamine transporter using 0.5 nM [3H]WIN-35428.
In test [10] the target is T2, Norepinephrine transporter. As to the kind of experiment: (§1) Inhibitory concentration binding to Norepinephrine transporter using 0.2 nM […]. The test is classed as functional.
The target in test [11] is T3, Sodium-dependent serotonin transporter. Kind of test: Inhibitory concentration binding to Serotonin transporter using 0.5 nM […].
Test [12] has as its target T1, Sodium-dependent dopamine transporter. As to the kind of experiment: Inhibitory concentration binding to Dopamine transporter using 0.5 nM [3H]WIN-35428.
In test [13] the target is T2, Norepinephrine transporter. The test is described as §1.

T2 sequence (Q9WTR4 whole entry): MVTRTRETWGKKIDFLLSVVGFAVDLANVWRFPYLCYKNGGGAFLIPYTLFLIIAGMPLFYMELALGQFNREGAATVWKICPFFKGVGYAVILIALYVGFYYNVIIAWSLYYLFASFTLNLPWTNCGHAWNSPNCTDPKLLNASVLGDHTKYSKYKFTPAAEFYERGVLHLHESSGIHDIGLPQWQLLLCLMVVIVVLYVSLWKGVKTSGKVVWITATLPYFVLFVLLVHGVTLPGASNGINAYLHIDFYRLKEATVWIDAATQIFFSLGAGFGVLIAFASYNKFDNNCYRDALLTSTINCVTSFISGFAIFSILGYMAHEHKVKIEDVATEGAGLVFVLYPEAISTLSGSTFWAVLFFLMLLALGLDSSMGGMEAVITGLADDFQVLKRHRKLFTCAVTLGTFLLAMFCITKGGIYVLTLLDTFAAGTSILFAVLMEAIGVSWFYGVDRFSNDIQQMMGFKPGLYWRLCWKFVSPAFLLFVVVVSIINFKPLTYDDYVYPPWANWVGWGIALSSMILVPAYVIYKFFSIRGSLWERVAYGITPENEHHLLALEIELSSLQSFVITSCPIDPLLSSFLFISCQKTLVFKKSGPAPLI

Take `CC(C)c1noc([C@H]2CN(C)CC[C@@H]2c2ccc(Cl)cc2)n1`: the Ki in test [1] is 0.391 µM; in test [2], 0.494 µM; in [3], 0.778 µM; in test [4], 2.92 µM.

Consider `COc1ccc(-c2noc([C@H]3CN(C)CC[C@@H]3c3ccc(Cl)cc3)n2)cc1`, for which the inhibition constant (Ki) in test [1], in test [2], in test [3] and in test [4] was over 3 µM each time.

For `Cc1noc([C@@H]2CN(C)CC[C@H]2c2ccc(Cl)cc2)n1`, in [1], affinity was put at a Ki of 0.955 µM. The IC50 in test [5] was over 1 µM; in [6], over 3 µM.

`COC(=O)[C@H]1CN(C)CC[C@@H]1c1ccc(Cl)cc1`: the inhibition constant Ki in [2] amounted to 0.315 µM; in test [3] it was 0.252 µM; in test [4], 8.49 µM.

In the case of `COC(=O)[C@@H]1CN(C)CC[C@H]1c1ccc(Cl)cc1`, the inhibition constant (Ki) in test [1] was 2.93 µM; in test [2], 2 µM; in test [3], 0.396 µM; in [4], 0.93 µM.

The compound `CN1CC[C@@H](c2ccc(Cl)cc2)[C@H](c2nc(-c3ccccc3)no2)C1` returned a Ki in test [1] of 1.71 µM. For the same compound, the concentration for half-maximal inhibition (IC50) in [7] and in test [8] was over 3 µM each time.

For `CC(C)c1noc([C@@H]2CN(C)CC[C@H]2c2ccc(Cl)cc2)n1`, the Ki in test [1] stood at 3.59 µM; in test [2], 2.9 µM; in test [3], 2.68 µM; in test [4] it was 1.22 µM.

For `CN1CC[C@@H](c2ccc(Cl)cc2)[C@H](c2nc(-c3ccc(Br)cc3)no2)C1`, the Ki in test [1], in test [2], in test [3] and in test [4] was over 3 µM throughout.

Turning to `CN1CC[C@@H](c2ccc(Cl)cc2)[C@H](c2nc(-c3ccc4c(c3)OCO4)no2)C1`, the Ki in test [1], in [2], in test [3] and in test [4] was over 3 µM each time.

In the case of `COc1ccc(-c2noc([C@@H]3CN(C)CC[C@H]3c3ccc(Cl)cc3)n2)cc1`, the Ki in test [1], in [2], in test [3] and in [4] was over 3 µM throughout.

Turning to `CN1CC[C@H](c2ccc(Cl)cc2)[C@@H](c2nc(-c3ccc4c(c3)OCO4)no2)C1`, the Ki in [1], in [2], in [3] and in test [4] was over 3 µM in each case.

Consider `CN1CC[C@H](c2ccc(Cl)cc2)[C@@H](c2nc(-c3ccc(Br)cc3)no2)C1`, for which the Ki in [1], in [2], in test [3] and in test [4] was over 3 µM throughout.

`CN1CC[C@@H](c2ccc(Cl)cc2)[C@H](c2nc(-c3ccc(Cl)cc3)no2)C1`: the inhibition constant Ki in [1], in test [2], in [3] and in [4] was over 3 µM in each case.

For `CN1CC[C@H](c2ccc(Cl)cc2)[C@@H](c2nc(-c3ccc(Cl)cc3)no2)C1`, the IC50 was found to be 0.00406 µM in test [9], 4.07 µM in test [10] and 0.404 µM in test [11]. In addition, the inhibition constant Ki in test [1], in [2], in test [3] and in test [4] was over 3 µM in each case.

In test [1], `CN1CC[C@H](c2ccc(Cl)cc2)[C@@H](c2nc(-c3ccccc3)no2)C1` gave an inhibitory constant (Ki) of 0.497 µM. Also, the 50% inhibitory concentration (IC50) is over 10 µM in [7] and over 3 µM in [8].

Regarding `Cc1noc([C@H]2CN(C)CC[C@@H]2c2ccc(Cl)cc2)n1`, the IC50 turned out to be 0.00405 µM in test [12], 0.363 µM in test [13] and 2.58 µM in [11]. Also, the Ki was found to be 0.187 µM in test [1], 0.201 µM in test [2], 0.256 µM in [3] and 5.96 µM in test [4].
